Read-outs that look alike come from different tables or passages of the source.
Assays:
[1] = test system: rat cardiac contractility (left ventricle fractional shortening); test: Echocardiography of acute effect on rat cardiac contractility, continuous IV infusion; format: in vivo, Sprague Dawley rats; conditions: plasma concentration at which fractional shortening is 50% of pre-dose baseline, estimated, read-out: IC50 (Mean ± S.D.)
Description: (§1) Assessment of in vivo cardiac function by echocardiography was performed in male Sprague Dawley rats under isoflurane (1-3%) anesthesia. 2-D M-mode images of the left ventricle were acquired in the parasternal long-axis view before, during, and after administration of compounds by continuous IV infusion or oral gavage. In vivo fractional shortening was determined by M-mode image analysis with the following calculation: ((End diastolic diameter−end systolic diameter)/end diastolic diameter×100). For continuous IV infusion experiments, three pre-dose baseline M-mode images were taken at 1 minute intervals prior to infusion of compound. Compounds were formulated in 50% Propylene Glycol (PG): 16% Captisol: 10% dimethylacetamide (DMA) and delivered via a jugular vein catheter at the rate of 1 mL/kg/h. During infusion, M-mode images were taken at 5 minute intervals. The infusion stopped when fractional shortening reached up to a 60% reduction from baseline. Blood samples were taken to determine the plasma concentration of the compounds. Data was reported as an estimated IC50 value, which is the concentration at which fractional shortening is 50% of the pre-dose baseline contractility.

[2] = biological target: bovine cardiac myofibrils (full-length cardiac myosin ATPase in the native sarcomere) (Bos taurus (Bovine), UniProt Q9BE39); test: Skinned bovine cardiac myofibril ATPase assay (PK/LDH-coupled); format: biochemical; conditions: Ca2+ activating to 75% of maximal rate; for CDMF75 IC15: concentration giving 15% inhibition; for IC50: read-out: CDMF75 IC50
Method in brief: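 Inhibition of steady-state ATPase read at 340 nm through a PK/LDH-coupled NADH system (0.5 mM NADH, 1.5 mM PEP). Detergent-skinned bovine cardiac myofibrils, 1 mg/mL, were tested at pH 6.8 in PIPES/MgCl2 with 50 μM ATP and calcium adjusted to give pCa50 or pCa75 activation.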

[3] = test system: rat cardiac contractility (left ventricle fractional shortening); test: Echocardiography of acute effect on rat cardiac contractility, oral gavage; format: in vivo, Sprague Dawley rats; conditions: for inhibition in vivo at 10 mg/kg / IC50 / inhibition in vivo at 8 mg/kg / inhibition in vivo at 6 mg/kg / inhibition in vivo at 4 mg/kg: Rattus norvegicus; for inhibition in vivo at 10 mg/kg / inhibition in vivo at 8 mg/kg / inhibition in vivo at 6 mg/kg / inhibition in vivo at 4 mg/kg: oral gavage; for IC50 / IC10: oral dosing, estimated; for IC50: plasma concentration at which fractional shortening is 50% of pre-dose baseline; for IC10: plasma concentration at which
Description: as §1
For oral dosing studies, three pre-dose baseline M-Mode images were taken at 1 minute intervals prior to compound administration. Compounds were formulated in a 0.5% hydroxypropyl methylcellulose 2910 (HPMC 2910): 0.1% Tween 80 suspension and delivered as a single dose (5 mL/kg) by oral gavage. Rats were lightly anesthetized for M-Mode echocardiography measurements at select time points over a 24 hour period. Different dose levels were evaluated for each compound. The compound effect on cardiac fractional shortening at the highest dose evaluated is presented in Table D as a percent reduction of baseline fractional shortening (=100%).
Concurrent with echocardiography measurements, blood samples were taken to determine the corresponding compound plasma concentration.

[4] = 1 h, 1-2 h post dose, read-out: FS (% reduction from baseline) at 1-2 h post dose (Mean ± S.D.)
[5] = 4 h post dose, read-out: FS (% reduction from baseline) at 4 h post dose (Mean ± S.D.)

Sequence of bovine cardiac myofibrils (full-length cardiac myosin ATPase in the native sarcomere) (Q9BE39 whole entry): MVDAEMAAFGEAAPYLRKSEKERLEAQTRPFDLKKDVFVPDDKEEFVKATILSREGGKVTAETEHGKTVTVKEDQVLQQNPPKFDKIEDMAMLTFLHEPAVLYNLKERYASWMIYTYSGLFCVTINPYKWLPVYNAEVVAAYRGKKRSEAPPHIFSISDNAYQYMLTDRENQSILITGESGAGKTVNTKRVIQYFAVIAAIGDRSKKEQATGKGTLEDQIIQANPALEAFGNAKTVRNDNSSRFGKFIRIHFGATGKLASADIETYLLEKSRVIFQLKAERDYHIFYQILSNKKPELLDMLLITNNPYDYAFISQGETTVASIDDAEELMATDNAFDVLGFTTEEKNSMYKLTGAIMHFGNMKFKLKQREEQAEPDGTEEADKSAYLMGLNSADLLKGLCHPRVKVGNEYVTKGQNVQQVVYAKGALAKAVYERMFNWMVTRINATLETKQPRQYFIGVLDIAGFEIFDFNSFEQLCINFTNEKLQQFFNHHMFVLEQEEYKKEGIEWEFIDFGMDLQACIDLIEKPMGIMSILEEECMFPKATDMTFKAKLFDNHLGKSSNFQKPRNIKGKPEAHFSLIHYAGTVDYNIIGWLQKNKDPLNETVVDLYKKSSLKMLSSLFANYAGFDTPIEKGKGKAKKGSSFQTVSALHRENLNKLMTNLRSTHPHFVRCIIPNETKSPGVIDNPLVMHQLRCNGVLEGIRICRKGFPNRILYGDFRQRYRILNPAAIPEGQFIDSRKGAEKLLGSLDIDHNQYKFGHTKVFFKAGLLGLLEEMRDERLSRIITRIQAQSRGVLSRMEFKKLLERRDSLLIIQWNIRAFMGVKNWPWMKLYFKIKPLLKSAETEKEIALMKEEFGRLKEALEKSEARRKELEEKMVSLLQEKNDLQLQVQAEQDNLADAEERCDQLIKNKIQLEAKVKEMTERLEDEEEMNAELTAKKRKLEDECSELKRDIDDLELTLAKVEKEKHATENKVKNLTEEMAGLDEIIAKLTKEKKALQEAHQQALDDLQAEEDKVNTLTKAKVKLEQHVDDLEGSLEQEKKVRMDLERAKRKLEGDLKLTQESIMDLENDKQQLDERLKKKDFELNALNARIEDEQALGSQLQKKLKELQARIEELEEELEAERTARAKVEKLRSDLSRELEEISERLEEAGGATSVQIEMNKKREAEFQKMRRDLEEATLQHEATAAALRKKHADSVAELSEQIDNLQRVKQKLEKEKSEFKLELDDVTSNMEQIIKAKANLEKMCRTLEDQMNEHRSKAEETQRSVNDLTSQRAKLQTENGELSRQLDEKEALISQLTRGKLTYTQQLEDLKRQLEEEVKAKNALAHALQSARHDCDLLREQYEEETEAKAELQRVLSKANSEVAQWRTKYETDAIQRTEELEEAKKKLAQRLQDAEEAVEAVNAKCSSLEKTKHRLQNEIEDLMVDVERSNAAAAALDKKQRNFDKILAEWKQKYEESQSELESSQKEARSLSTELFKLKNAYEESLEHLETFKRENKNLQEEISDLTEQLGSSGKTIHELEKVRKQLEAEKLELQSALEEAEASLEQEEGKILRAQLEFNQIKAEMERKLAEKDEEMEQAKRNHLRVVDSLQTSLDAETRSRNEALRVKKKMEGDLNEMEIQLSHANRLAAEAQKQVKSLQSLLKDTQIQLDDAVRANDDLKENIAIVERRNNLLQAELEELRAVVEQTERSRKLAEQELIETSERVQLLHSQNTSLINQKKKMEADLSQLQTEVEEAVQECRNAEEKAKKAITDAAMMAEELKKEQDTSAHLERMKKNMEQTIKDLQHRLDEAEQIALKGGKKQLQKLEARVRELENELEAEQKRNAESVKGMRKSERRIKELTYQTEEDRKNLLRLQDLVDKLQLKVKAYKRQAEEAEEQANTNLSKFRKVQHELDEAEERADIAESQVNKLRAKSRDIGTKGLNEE
Sequence of bovine cardiac myofibrils (full-length cardiac myosin ATPase in the native sarcomere) (P85100 whole entry partner): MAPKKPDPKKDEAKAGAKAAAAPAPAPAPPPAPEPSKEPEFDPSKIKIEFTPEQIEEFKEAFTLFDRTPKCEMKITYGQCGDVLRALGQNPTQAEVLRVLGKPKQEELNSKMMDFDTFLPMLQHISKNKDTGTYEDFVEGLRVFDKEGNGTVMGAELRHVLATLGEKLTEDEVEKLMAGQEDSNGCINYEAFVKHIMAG
Sequence of bovine cardiac myofibrils (full-length cardiac myosin ATPase in the native sarcomere) (Q3SZE5 whole entry partner): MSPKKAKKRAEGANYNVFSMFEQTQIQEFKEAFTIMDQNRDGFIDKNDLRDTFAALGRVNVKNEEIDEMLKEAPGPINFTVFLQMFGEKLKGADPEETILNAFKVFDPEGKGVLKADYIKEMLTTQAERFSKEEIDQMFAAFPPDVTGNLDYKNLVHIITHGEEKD

Row | Compound | IC50 ([1]; Rattus norvegicus) [µM] | CDMF75 IC15 [2] [µM] | IC50 [2] [nM] | IC50 [3] [µM] | IC10 [3] [µM] | further results
1 | Cc1ncc(C(=O)N[C@@H]2CCc3cc(-c4noc(C5CC5)n4)ccc32)o1 [Compound 388, (R)-N-(5-(5-cyclopropyl-1,2,4-oxadiazol-3-yl)-2,3-dihydro-1H-inden-1-yl)-2-methyloxazole-5-carboxamide] | 5.4 ± 0.1 | 0.9 | 2800 | – | – | –
2 | COCc1nc(-c2ccc3c(c2)CC[C@H]3NC(=O)c2nnc(C)o2)no1 [Compound 697, (R)-N-(5-(5-(methoxymethyl)-1,2,4-oxadiazol-3-yl)-2,3-dihydro-1H-inden-1-yl)-5-methyl-1,3,4-oxadiazole-2-carboxamide] | – | 0.9 | 3700 | 8.3 | 3.3 | inhibition in vivo at 10 mg/kg [3, 4]: 70 ± 2%; inhibition in vivo at 10 mg/kg [3, 5]: 45 ± 3%
3 | Cn1nccc1C(=O)N[C@@H]1COc2cc(-c3noc(C4CC4)n3)ccc21 [Compound 222, (S)—N-(6-(5-cyclopropyl-1,2,4-oxadiazol-3-yl)-2,3-dihydrobenzofuran-3-yl)-1-methyl-1H-pyrazole-5-carboxamide] | 1.1 ± 0.03 | 0.3 | 1000 | – | – | –
4 | CCc1nc(-c2ccc3c(c2)CC[C@H]3NC(=O)c2cc(C)no2)no1 [Compound 565, (R)-N-(5-(5-ethyl-1,2,4-oxadiazol-3-yl)-2,3-dihydro-1H-inden-1-yl)-3-methylisoxazole-5-carboxamide] | – | 0.3 | 1100 | 37 | 11 | inhibition in vivo at 8 mg/kg [3, 4]: 55 ± 13%; inhibition in vivo at 8 mg/kg [3, 5]: 43 ± 13%
5 | COCc1nc(-c2ccc3c(c2)CC[C@H]3NC(=O)c2ccnc(CO)c2)no1 [Compound 727, (R)-2-(hydroxymethyl)-N-(5-(5-(methoxymethyl)-1,2,4-oxadiazol-3-yl)-2,3-dihydro-1H-inden-1-yl)isonicotinamide] | – | 1.2 | 4100 | 4.7 | 1.2 | inhibition in vivo at 8 mg/kg [3, 4]: 63 ± 1%; inhibition in vivo at 8 mg/kg [3, 5]: 33 ± 1%
6 | O=C(N[C@@H]1COc2cc(-c3noc(C(F)F)n3)ccc21)c1ccnc(CO)c1 [Compound 709, (S)-N-(6-(5-(difluoromethyl)-1,2,4-oxadiazol-3-yl)-2,3-dihydrobenzofuran-3-yl)-2-(hydroxymethyl)isonicotinamide] | – | 0.6 | 2300 | 4.3 | 1.5 | inhibition in vivo at 8 mg/kg [3, 4]: 68 ± 2%; inhibition in vivo at 8 mg/kg [3, 5]: 31 ± 3%
7 | Cc1n[nH]cc1C(=O)N[C@@H]1CCc2cc(-c3noc(C4CC4)n3)ccc21 [Compound 420, (R)-N-(5-(5-cyclopropyl-1,2,4-oxadiazol-3-yl)-2,3-dihydro-1H-inden-1-yl)-3-methyl-1H-pyrazole-4-carboxamide] | 2.1 ± 0.05 | 0.4 | 1400 | – | – | –
8 | (R)—N-(7-(5-ethyl-1,2,4-oxadiazol-3-yl)chroman-4-yl)-1-methyl-1H-pyrazole-5-carboxamide [Compound 538] | – | 0.7 | 3300 | – | – | IC50 [1]: 10.9 ± 0.37 µM
9 | Cc1nc(-c2ccc3c(c2)OC[C@H]3NC(=O)c2cn(C)nc2C)no1 [Compound 158, (S)-1,3-dimethyl-N-(6-(5-methyl-1,2,4-oxadiazol-3-yl)-2,3-dihydrobenzofuran-3-yl)-1H-pyrazole-4-carboxamide] | 1.1 ± 0.03 | 0.7 | 2800 | – | – | –
10 | O=C(N[C@@H]1CCc2cc(-c3noc(C(F)F)n3)ccc21)c1ccnc(CO)c1 [Compound 664, (R)-N-(5-(5-(difluoromethyl)-1,2,4-oxadiazol-3-yl)-2,3-dihydro-1H-inden-1-yl)-2-(hydroxymethyl)isonicotinamide] | – | 0.5 | 1900 | 3.3 | 1.2 | inhibition in vivo at 6 mg/kg [3, 4]: 65 ± 4%; inhibition in vivo at 6 mg/kg [3, 5]: 38 ± 5%
11 | CCc1nc(-c2ccc3c(c2)CC[C@H]3NC(=O)c2ccnc(CO)c2)no1 [Compound 577, (R)-N-(5-(5-ethyl-1,2,4-oxadiazol-3-yl)-2,3-dihydro-1H-inden-1-yl)-2-(hydroxymethyl)isonicotinamide] | – | 0.4 | 1300 | 0.7 | 0.1 | inhibition in vivo at 4 mg/kg [3, 4]: 67 ± 6%; inhibition in vivo at 4 mg/kg [3, 5]: 34 ± 11%
12 | Cc1cc(-c2ccc3c(c2)OC[C@H]3NC(=O)c2cn[nH]c2C)no1 [Compound 434, (S)-5-methyl-N-(6-(5-methylisoxazol-3-yl)-2,3-dihydrobenzofuran-3-yl)-1H-pyrazole-4-carboxamide] | 9.3 ± 0.15 | 0.7 | 2400 | – | – | –
13 | Cn1cc(C(=O)N[C@@H]2COc3cc(-c4noc(C5CC5)n4)ccc32)cn1 [Compound 236, (S)—N-(6-(5-cyclopropyl-1,2,4-oxadiazol-3-yl)-2,3-dihydrobenzofuran-3-yl)-1-methyl-1H-pyrazole-4-carboxamide] | 11.4 ± 0.6 | 0.5 | 1800 | – | – | –
14 | Cc1nc(-c2ccc3c(c2)OC[C@H]3NC(=O)c2cnn(C)c2)no1 [Compound 211, (S)-1-methyl-N-(6-(5-methyl-1,2,4-oxadiazol-3-yl)-2,3-dihydrobenzofuran-3-yl)-1H-pyrazole-4-carboxamide] | 5.4 ± 0.25 | 0.8 | 2800 | – | – | –
15 | CCc1nc(-c2ccc3c(c2)CC[C@H]3NC(=O)c2ccc(=O)n(C)c2)no1 [Compound 589, (R)-N-(5-(5-ethyl-1,2,4-oxadiazol-3-yl)-2,3-dihydro-1H-inden-1-yl)-1-methyl-6-oxo-1,6-dihydropyridine-3-carboxamide] | – | 0.7 | 2300 | 1.6 | 0.3 | inhibition in vivo at 6 mg/kg [3, 4]: 73 ± 12%; inhibition in vivo at 6 mg/kg [3, 5]: 46 ± 3%
16 | COCc1nc(-c2ccc3c(c2)CC[C@H]3NC(=O)c2nnn(C)n2)no1 [Compound 144, (R)-N-(5-(5-(methoxymethyl)-1,2,4-oxadiazol-3-yl)-2,3-dihydro-1H-inden-1-yl)-2-methyl-2H-tetrazole-5-carboxamide] | 3.4 ± 0.12 | 0.6 | 2300 | – | – | –
17 | CCc1cc(-c2ccc3c(c2)OC[C@H]3NC(=O)c2nnn(C)n2)no1 [Compound 365, (S)-N-(6-(5-ethylisoxazol-3-yl)-2,3-dihydrobenzofuran-3-yl)-2-methyl-2H-tetrazole-5-carboxamide] | 4.6 ± 0.17 | 0.6 | 2200 | – | – | –
18 | CCc1nc(-c2ccc3c(c2)CC[C@H]3NC(=O)OC)no1 [Compound 304, methyl (R)-(5-(5-ethyl-1,2,4-oxadiazol-3-yl)-2,3-dihydro-1H-inden-1-yl)carbamate] | 1.7 ± 0.06 | 0.2 | 700 | – | – | –
19 | CCc1cc(-c2ccc3c(c2)OC[C@H]3NC(=O)c2cn[nH]c2C)no1 [Compound 433, (S)—N-(6-(5-ethylisoxazol-3-yl)-2,3-dihydrobenzofuran-3-yl)-5-methyl-1H-pyrazole-4-carboxamide] | 4.3 ± 0.11 | 0.3 | 900 | – | – | –
20 | Cn1nnc(C(=O)N[C@@H]2CCc3cc(-c4noc(C5CC5)n4)ccc32)n1 [Compound 141, (R)—N-(5-(5-cyclopropyl-1,2,4-oxadiazol-3-yl)-2,3-dihydro-1H-inden-1-yl)-2-methyl-2H-tetrazole-5-carboxamide] | 1.5 ± 0.05 | 0.3 | 900 | – | – | –

Reference: patent publication US12065436B2, “Cardiac sarcomere inhibitors” (Cytokinetics, Inc., priority 2018, dated 2024)
